From US20070049593A1 (priority 2004, published 2007) come the findings set out here.

Structures can show the parent of a compound that is named as a salt. A value given as a limit tells only on which side of the number the result lay.

T1 sequence (P26663 2420-2963): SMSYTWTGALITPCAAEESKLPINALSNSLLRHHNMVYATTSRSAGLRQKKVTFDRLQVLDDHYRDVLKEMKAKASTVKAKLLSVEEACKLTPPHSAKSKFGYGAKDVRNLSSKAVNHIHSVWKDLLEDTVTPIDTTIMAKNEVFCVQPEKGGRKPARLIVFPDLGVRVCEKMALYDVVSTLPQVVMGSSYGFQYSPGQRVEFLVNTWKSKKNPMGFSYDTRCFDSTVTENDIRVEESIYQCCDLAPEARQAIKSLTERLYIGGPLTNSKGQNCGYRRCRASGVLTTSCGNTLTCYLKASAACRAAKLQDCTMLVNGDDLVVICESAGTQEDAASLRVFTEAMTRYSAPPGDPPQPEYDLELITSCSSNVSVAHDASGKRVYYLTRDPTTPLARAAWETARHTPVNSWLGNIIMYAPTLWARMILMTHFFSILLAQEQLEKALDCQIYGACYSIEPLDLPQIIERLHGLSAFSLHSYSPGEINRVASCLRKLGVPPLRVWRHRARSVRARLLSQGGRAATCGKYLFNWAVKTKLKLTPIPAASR

One assay concerns the target T1, HCV polymerase (Hepatitis C virus genotype 1b, UniProt P26663).
T1 construct: a region encoding NS5B (J Virol 1991 March, 65(3), 1105-13, 544 amino acids after deletion of 47 amino acids on the C-terminal); 6xHis (C); made in house; host or cells: Escherichia coli
Description: biochemical.
Conditions: not given
More on the design: species or system HCV BK strain. A digest of the protocol:
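Recombinant HCV BK-strain NS5B (C-terminal 47 aa deleted, His6-tagged, E. coli), 0.5 μg/ml, run with 5 μg/ml in vitro-transcribed RNA template (polyU/3′X), ATP/GTP/CTP 50 μM, UTP 2 μM plus [3H]UTP, pH 7.5, 25° C, 90 min. TCA-precipitated RNA counted by scintillation; IC50 from activity with vs without compound.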
As usually defined, the IC50 is the concentration that inhibits the measured activity by half. Take `CCN1CCCC(CCN2CCn3c(c(C4CCCCC4)c4ccc(C(=O)O)cc43)-c3ccc(C)cc32)C1` (stereo not shown) [Example 1-273, 13-cyclohexyl-5-[2-(1-ethylpiperidin-3-yl)ethyl]-3-methyl-6,7-dihydro-5H-benzo[5,6][1,4]diazepino[7,1-a]indole-10-carboxylic acid dihydrochloride]: the IC50 was under 100 nM.

Consider `Cc1ccc2c(c1)N(CCC1CCCN(C)C1)CCn1c-2c(C2CCCCC2)c2ccc(C(=O)O)cc21` (stereo not shown) [Example 1-274, 13-cyclohexyl-3-methyl-5-[2-(1-methylpiperidin-3-yl)ethyl]-6,7-dihydro-5H-benzo[5,6][1,4]diazepino[7,1-a]indole-10-carboxylic acid dihydrochloride], for which the IC50 was under 100 nM.

The compound `Cc1ccc2c(c1)N(CCC1CCCN(C(C)C)C1)CCn1c-2c(C2CCCCC2)c2ccc(C(=O)O)cc21` (stereo not shown) [Example 1-275, 13-cyclohexyl-5-[2-(1-isopropylpiperidin-3-yl)ethyl]-3-methyl-6,7-dihydro-5H-benzo[5,6][1,4]diazepino[7,1-a]indole-10-carboxylic acid dihydrochloride] gave an IC50 of under 100 nM.

`CCOc1ccc2c(c1)N(CCN1CCCCC1)CCn1c-2c(C2CCCCC2)c2ccc(C(=O)O)cc21` [Example 1-276, 13-cyclohexyl-3-ethoxy-5-[2-(piperidin-1-yl)ethyl]-6,7-dihydro-5H-benzo[5,6][1,4]diazepino[7,1-a]indole-10-carboxylic acid dihydrochloride] displayed an IC50 of under 100 nM.

Turning to `O=C(O)c1ccc2c(C3CCCCC3)c3n(c2c1)CCN(CCN1CCCCCCC1)c1cc(Cl)ccc1-3` [Example 1-277, 5-[2-(azocan-1-yl)ethyl]-3-chloro-13-cyclohexyl-6,7-dihydro-5H-benzo[5,6][1,4]diazepino[7,1-a]indole-10-carboxylic acid dihydrochloride], the IC50 is under 100 nM.

For `Cc1ccc2c(c1)N(CCN1CCCCCCC1)CCn1c-2c(C2CCCCC2)c2ccc(C(=O)O)cc21` [Example 1-278, 5-[2-(azocan-1-yl)ethyl]-13-cyclohexyl-3-methyl-6,7-dihydro-5H-benzo[5,6][1,4]diazepino[7,1-a]indole-10-carboxylic acid dihydrochloride], the IC50 is under 100 nM.

Compound `CC(=O)N1CCC(N(C)CCN2CCn3c(c(C4CCCCC4)c4ccc(C(=O)O)cc43)-c3ccccc32)CC1` [Example 1-279, 5-{2-[N-(1-acetylpiperidin-4-yl)-N-methylamino]ethyl}-13-cyclohexyl-6,7-dihydro-5H-benzo[5,6][1,4]diazepino[7,1-a]indole-10-carboxylic acid monohydrochloride] yielded an IC50 of under 100 nM.

`CN(CCN1CCn2c(c(C3CCCCC3)c3ccc(C(=O)O)cc32)-c2ccccc21)C1CCN(S(C)(=O)=O)CC1` [Example 1-280, 13-cyclohexyl-5-{2-[N-(1-methanesulfonylpiperidin-4-yl)-N-methylamino]ethyl}-6,7-dihydro-5H-benzo[5,6][1,4]diazepino[7,1-a]indole-10-carboxylic acid]: the IC50 was under 100 nM.

In the case of `COC(=O)N1CCC(N(C)CCN2CCn3c(c(C4CCCCC4)c4ccc(C(=O)O)cc43)-c3ccccc32)CC1` [Example 1-281, 13-cyclohexyl-5-{2-[N-(1-methoxycarbonylpiperidin-4-yl)-N-methylamino]ethyl}-6,7-dihydro-5H-benzo[5,6][1,4]diazepino[7,1-a]indole-10-carboxylic acid monohydrochloride], the IC50 is under 100 nM.

As for `CN1CCC(N(C)CCN2CCn3c(c(C4CCCCC4)c4ccc(C(=O)O)cc43)-c3ccccc32)CC1` [Example 1-282, 13-cyclohexyl-5-{2-[N-methyl-N-(1-methylpiperidin-4-yl)amino]ethyl}-6,7-dihydro-5H-benzo[5,6][1,4]diazepino[7,1-a]indole-10-carboxylic acid dihydrochloride], the IC50 is under 100 nM.

For the compound `CN(CCN1CCn2c(c(C3CCCCC3)c3ccc(C(=O)O)cc32)-c2ccccc21)C1CCOCC1` [Example 1-283, 13-cyclohexyl-5-{2-[N-methyl-N-(tetrahydropyran-4-yl)amino]ethyl}-6,7-dihydro-5H-benzo[5,6][1,4]diazepino[7,1-a]indole-10-carboxylic acid], the IC50 was under 100 nM.

In turn, `CN1CCC(N(C)CCN2CCn3c(c(C4CCCCC4)c4ccc(C(=O)O)cc43)-c3ccccc32)C1` (stereo not shown) [Example 1-284, 13-cyclohexyl-5-{2-[N-methyl-N-(1-methylpyrrolidin-3-yl)amino]ethyl}-6,7-dihydro-5H-benzo[5,6][1,4]diazepino[7,1-a]indole-10-carboxylic acid dihydrochloride] yielded an IC50 of under 100 nM.

`CN(CCN1CCn2c(c(C3CCCCC3)c3ccc(C(=O)O)cc32)-c2ccccc21)C1CCNC1` (stereo not shown) [Example 1-285, 13-cyclohexyl-5-{2-[N-methyl-N-(pyrrolidin-3-yl)amino]ethyl}-6,7-dihydro-5H-benzo[5,6][1,4]diazepino[7,1-a]indole-10-carboxylic acid dihydrochloride] yielded an IC50 of under 100 nM.

In turn, `CCN1CCCN(CCN2CCn3c(c(C4CCCCC4)c4ccc(C(=O)O)cc43)-c3ccccc32)CC1` [Example 1-286, 13-cyclohexyl-5-[2-(4-ethyl-1,4-diazepan-1-yl)ethyl]-6,7-dihydro-5H-benzo[5,6][1,4]diazepino[7,1-a]indole-10-carboxylic acid trihydrochloride] gave an IC50 of under 100 nM.

Consider `Cc1ccc2c(c1)N(CCC1CCCCN1C)CCn1c-2c(C2CCCCC2)c2ccc(C(=O)O)cc21` (stereo not shown) [Example 1-287, 13-cyclohexyl-3-methyl-5-[2-(1-methylpiperidin-2-yl)ethyl]-6,7-dihydro-5H-benzo[5,6][1,4]diazepino[7,1-a]indole-10-carboxylic acid dihydrochloride], for which the IC50 is under 100 nM.

As to `CCN1CCCCC1CCN1CCn2c(c(C3CCCCC3)c3ccc(C(=O)O)cc32)-c2ccc(C)cc21` (stereo not shown) [Example 1-288, 13-cyclohexyl-5-[2-(1-ethylpiperidin-2-yl)ethyl]-3-methyl-6,7-dihydro-5H-benzo[5,6][1,4]diazepino[7,1-a]indole-10-carboxylic acid dihydrochloride], the IC50 is under 100 nM.

Regarding `CSc1ccc2c(c1)N(CCN1CCCCCC1)CCn1c-2c(C2CCCCC2)c2ccc(C(=O)O)cc21` [Example 1-289, 5-[2-(azepan-1-yl)ethyl]-13-cyclohexyl-3-methylsulfanyl-6,7-dihydro-5H-benzo[5,6][1,4]diazepino[7,1-a]indole-10-carboxylic acid dihydrochloride], the IC50 is under 100 nM.

For the compound `CCC1CN(CCN2CCn3c(c(C4CCCCC4)c4ccc(C(=O)O)cc43)-c3ccc(Cl)cc32)CCO1` (stereo not shown) [Example 1-290, 3-chloro-13-cyclohexyl-5-[2-(2-ethylmorpholin-4-yl)ethyl]-6,7-dihydro-5H-benzo[5,6][1,4]diazepino[7,1-a]indole-10-carboxylic acid dihydrochloride], the IC50 was under 100 nM.

On to `CCC1CN(CCN2CCn3c(c(C4CCCCC4)c4ccc(C(=O)O)cc43)-c3ccc(C)cc32)CCO1` (stereo not shown) [Example 1-291, 13-cyclohexyl-5-[2-(2-ethylmorpholin-4-yl)ethyl]-3-methyl-6,7-dihydro-5H-benzo[5,6][1,4]diazepino[7,1-a]indole-10-carboxylic acid dihydrochloride], for which the IC50 was under 100 nM.

As to `CCC1COCCN1CCN1CCn2c(c(C3CCCCC3)c3ccc(C(=O)O)cc32)-c2ccc(C)cc21` (stereo not shown) [Example 1-292, 13-cyclohexyl-5-[2-(3-ethylmorpholin-4-yl)ethyl]-3-methyl-6,7-dihydro-5H-benzo[5,6][1,4]diazepino[7,1-a]indole-10-carboxylic acid dihydrochloride], the IC50 was under 100 nM.

For the compound `COCC1CCCN(CCN2CCn3c(c(C4CCCCC4)c4ccc(C(=O)O)cc43)-c3ccc(Cl)cc32)C1` (stereo not shown) [Example 1-293, 3-chloro-13-cyclohexyl-5-[2-(3-methoxymethylpiperidin-1-yl)ethyl]-6,7-dihydro-5H-benzo[5,6][1,4]diazepino[7,1-a]indole-10-carboxylic acid dihydrochloride], the IC50 was under 100 nM.

In turn, `CCc1ccc2c(c1)N(CCN1CCCCC1)CCn1c-2c(C2CCCCC2)c2ccc(C(=O)O)cc21` [Example 1-295, 13-cyclohexyl-3-ethyl-5-[2-(piperidin-1-yl)ethyl]-6,7-dihydro-5H-benzo[5,6][1,4]diazepino[7,1-a]indole-10-carboxylic acid dihydrochloride] displayed an IC50 of under 100 nM.

Take `CC(C)c1ccc2c(c1)N(CCN1CCCCC1)CCn1c-2c(C2CCCCC2)c2ccc(C(=O)O)cc21` [Example 1-296, 13-cyclohexyl-3-isopropyl-5-[2-(piperidin-1-yl)ethyl]-6,7-dihydro-5H-benzo[5,6][1,4]diazepino[7,1-a]indole-10-carboxylic acid dihydrochloride]: the 50% inhibitory concentration (IC50) was under 100 nM.

`CSc1ccc2c(c1)N(CCCN1CCCCC1)CCn1c-2c(C2CCCCC2)c2ccc(C(=O)O)cc21` [Example 1-297, 13-cyclohexyl-3-methylsulfanyl-5-[3-(piperidin-1-yl)propyl]-6,7-dihydro-5H-benzo[5,6][1,4]diazepino[7,1-a]indole-10-carboxylic acid dihydrochloride] gave an IC50 of under 100 nM.

The same assay, now with this note: 25° C., 90 min; [5,6-3H]UTP incorporation into RNA; read-out: HCV polymerase inhibitory activity IC50.
As for `COCC1CCCN(CCN2CCn3c(c(C4CCCCC4)c4ccc(C(=O)O)cc43)-c3ccc(C)cc32)C1` (stereo not shown) [Example 1-294, 13-cyclohexyl-5-[2-(3-methoxymethylpiperidin-1-yl)ethyl]-3-methyl-6,7-dihydro-5H-benzo[5,6][1,4]diazepino[7,1-a]indole-10-carboxylic acid dihydrochloride], the IC50 was under 100 nM.
